Laboratory results published in patent US8921082B2, “Method for producing xylitol from lignocellulosic hydrolysates without detoxification” (priority 2009, dated 2014).

System: Candida sp. strain
Assay: Tolerance of the strain Candida sp. to furfural (xylose fermentation with furfural added)
Assay type: cell-based
Experimental: The fermentation medium contained 97 g/L sterilized synthetic xylose solution with furfural in a concentration range of 1-3 g/L added. The fermentation temperature is controlled at 30° C., the agitation of the incubator is maintained at 150 rpm, and the ratio of the inocula size of the culture and the volume of the fermentation medium is 1:6 (v/v).

## O=Cc1ccco1 [furfural]
97 g/L synthetic xylose solution, furfural 1-3 g/L added, 30° C., 150 rpm
  tolerance of the strain to furfural: higher than 3 g/L
Furfural 1-3 g/L in 97 g/L synthetic xylose solution
  xylitol yield: higher than 0.7 g/g
Furfural 3 g/L, 97 g/L synthetic xylose solution, compared with no furfural
  xylose fermentation capacity of the strain: the same as that without furfural
